Source: US20050265999A1, “Modulation of 5-HT2 receptors as a treatment for cardiovascular diseases” (Myogen, Inc., priority 2003, published 2005)

What was measured:
5-HT2C = target: T1, 5-HT2C (Homo sapiens, UniProt P28335); test: Radioligand receptor binding assay; conditions: 10 μM compound, n=2
T1 sequence (P28335 33-458): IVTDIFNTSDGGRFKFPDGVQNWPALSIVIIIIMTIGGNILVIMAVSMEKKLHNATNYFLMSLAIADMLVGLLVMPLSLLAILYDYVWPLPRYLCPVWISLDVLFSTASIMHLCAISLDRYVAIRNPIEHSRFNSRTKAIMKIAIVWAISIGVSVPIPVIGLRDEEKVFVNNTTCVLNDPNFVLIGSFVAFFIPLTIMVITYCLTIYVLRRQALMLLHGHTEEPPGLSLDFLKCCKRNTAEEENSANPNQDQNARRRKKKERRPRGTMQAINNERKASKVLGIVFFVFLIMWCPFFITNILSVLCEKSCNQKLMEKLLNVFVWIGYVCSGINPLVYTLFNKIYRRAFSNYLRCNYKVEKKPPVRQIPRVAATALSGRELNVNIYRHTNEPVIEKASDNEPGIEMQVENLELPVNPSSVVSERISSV

[1] = system: MCIP1 exon 4 promoter luciferase reporter; test: High throughput MCIP1-luciferase reporter screen in H9c2 muscle cells; format: cell-based, rat; conditions: screen of 20,000 compounds
From the text: A high throughput screen for small molecules that enhance MCIP1 expression in cardiac myocytes. The inventors set out to perform a high throughput screen of a combinatorial small molecule library for compounds capable of increasing MCIP1 expression in cultured H9c2 muscle cells. Toward that end, the inventors used a luciferase reporter gene controlled by the region upstream of exon 4 of the human MCIP1 gene (−874 to +30). This genomic region contains 15 NFAT binding sites and confers calcineurin responsiveness to MCIP1. Transcripts initiated from exon 4 encode a MCIP1 protein with a Mr=28 kD.

[2] = system: neonatal rat ventricular myocytes (NRVM); test: ANF secretion by competitive ELISA in NRVM; format: cell-based; conditions: NRVM stimulated with compound alone
Protocol: (§1) NRVM culture. For preparations of neonatal rat ventricular myocytes (NRVMs), hearts were removed from 10-20 newborn (1-2 days old) Sprague-Dawley rats. Isolated ventricles were pooled, minced and dispersed by three 20-min incubations at 37° C. in Ads buffer (116 mM NaCl, 20 mM HEPES, 10 mM NaH2PO4, 5.5 mM glucose, 5 mM KCl, 0.8 mM MgSO4, pH 7.4) containing collagenase Type II (65 units/ml, Worthington) and pancreatin (0.6 mg/ml, GibcoBRL). Dispersed cells were applied to a discontinuous gradient of 40.5% and 58.5% (v/v) Percoll (Amersham Biosciences), centrifuged, and myocytes collected from the interface layer. Myocyte preparations were pre-plated in Dulbecco's modified Eagle's medium (DMEM, Cellgro), supplemented with 10% (v/v) fetal bovine serum (FBS, HyClone), 4 mM L-glutamine and 1% penicillin/streptomycin for 1 hour at 37° C. to reduce fibroblast contamination, then plated at a density of 2.5×10^5 cells per well on 6-well tissue culture plates (or 10,000 cells/well on 96-well tissue culture plates) coated with a 0.2% (w/v) gelatin solution. […]
(§2) Hypertrophy and toxicity assays. Primary hypertrophy endpoints for NRVM included quantitation of: ANF secretion, total cellular protein and cell volume. ANF in media supernatants was quantitated by competitive ELISA using a monoclonal anti-ANF antibody (Biodesign) and a biotinylated ANF peptide (Phoenix Peptide). Total cellular protein was quantitated by standard Coomassie dye-binding assay; cells were lysed in protein assay reagent (BioRad) and absorbance at A595 was measured after 1 hour. […] After recovery by centrifugation, cell pellets were washed in PBS, resuspended in 10 ml IsoFlow electrolyte solution (Beckman-Coulter) and analyzed with a Z2 Coulter Particle Counter and Size Analyzer (Beckman-Coulter). Cytotoxicity was quantitated by measuring release of adenylate kinase (AK) from cultured NRVM into culture medium (ToxiLight kit, Cambrex).

beta myosin heavy chain = test: Beta myosin heavy chain protein quantitation by cytoblot in NRVM; format: cell-based, rat; conditions: 1 μM, 48 h
Protocol: Beta myosin heavy chain protein quantitation by cytoblot. NRVM were plated overnight in 96-well plates. The next day, medium was replaced with serum-free maintenance medium for 4 hours, and test compounds added. Forty-eight hours later, wells were washed twice with […] PBS, aspirating between washes. Cells were fixed by adding […] methanol for 30 min. Methanol was aspirated and wells washed twice with […] PBS. Next, […] blocking solution (PBS+1% BSA) was added for 1 hr at room temperature. Blocking solution was aspirated and […] primary antibody solution added (β-myosin heavy chain hybridoma supernatant+1% BSA) for 1 hr at room temperature. Primary antibody solution was removed and wells washed three times with […] PBS+1% BSA. Wash was aspirated and […] secondary antibody solution added (1:500 dilution of goat […] HRP conjugate in PBS+1% BSA; Southern Biotech #4050-05) for 1 hr at room temperature. Secondary antibody solution was removed and wells washed three times with […] PBS. Wash was aspirated and […] luminol solution added (Pierce #34080). Plates were read in a 96-well luminometer (Packard Fusion).

[3] = system: neonatal rat ventricular myocytes (NRVM); test: Affymetrix gene expression screening of NRVM; format: cell-based; design: dose or concentration left out as unconfirmed
From the text: Affymetrix screening. RNA was extracted from unstimulated NRVM and hypertrophic NRVM exposed to compound 18264 […] (Trizol Reagent, GibcoBRL). RNA samples were converted to biotin-labeled cRNA and hybridized to Rat expression arrays (Affymetrix GeneChip). Arrays were then washed, scanned and quantitated as per manufacturer's instructions.

[4] = system: neonatal rat ventricular myocytes (NRVM); test: Cell volume measurement (Coulter counter) of NRVM; format: cell-based; conditions: NRVM stimulated with compound alone
Protocol: as §1, §2

inhibition at 10 µM (5-HT2C): 42%
SMILES: Cc1c(-c2ccccc2)nc2sc3c(c2c1N)CCCC3 [Compound 18264, 3-Methyl-2-phenyl-5,6,7,8-tetrahydro-benzo[4,5]thieno[2,3-b]pyridin-4-ylamine]
stimulation of MCIP1-luciferase expression [1]: approximately two-fold
ANF expression/secretion [2]: up-regulated ANF expression
expression of fetal beta isoform of myosin heavy chain (beta myosin heavy chain): significantly up-regulated
-Fold upreg. of Alpha skeletal actin [3]: 2.1 fold
-Fold upreg. of Atrial natriuretic factor [3]: 2.3 fold
-Fold upreg. of Brain natriuretic factor [3]: 4.1 fold
-Fold upreg. of Myosin heavy chain, embryonic [3]: 29 fold
cell volume [4]: increased
